The subject of data set [1] is TPA-induced inflammatory response (mouse ear edema). The experiment in a line: TPA-induced mouse ear edema, topical application. As to conditions: for Anti-inflammatory Effect (% of control): reduction in ear thickness vs control group; for anti-inflammatory effect (in words): TPA-induced inflammatory response, topical. The data set is classed as in vivo, mice. The method, then:
Edema was induced in mice by topical application of 10 μl of TPA (Tetradecnoylphorbol acetate) in acetone (2.5 μg/ear) to both the inner and outer surface of one ear of each mouse used in the experiment. Each test compound, diluted with acetone to a concentration of 10% was applied topically to the inflamed mouse ear immediately after TPA application, so as to deliver 2.5 mg/ear. The reference drug, indomethacin (0.5 mg/ear), was administered as a positive control. The thickness of each ear was measured before treatment and 4 hours after induction of inflammation, using a micrometer (Mitutoyo Co.). Anti-inflammatory effect was expressed as the reduction in ear thickness with respect to the control group.

The test system of data set [2] is HUVE (Human Umbilical Vein Endothelial) cells. The experiment in a line: HUVE cell proliferation in the presence of bFGF, XTT. The data set is classed as cell-based. The note with it: 48 hours; for Proliferation (%): bFGF only = 100, no bFGF = 0; for Average (relative cell number, XTT): with bFGF. On the procedure: HUVE (Human Umbilical Vein Endothelial) cells were isolated from human umbilical cord veins by a method of Jaffe et al. (Jaffe, E. A., Nachman, R. L., Becker, C. G., and Minick, C. R. Culture of Human endothelial cells derived from umbilical veins. J. Clin. Invest. 52: 2745-2756, 1973). HUVE cells were confirmed by immunostaining with antibody against factor VIII. The cells were grown in M199 medium (Gibco BRL, Grand Island, N.Y.) supplemented with 10% fetal bovine serum, 100 units/mL penicillin, 100 μg/mL streptomycin, 50 μg/mL endothelial cell growth supplement, and 5 units/mL heparin at 37° C. in an atmosphere of 5% CO2-95% air.
1×10^4 HUVE cells were plated in each well of 96 well plates and five different concentrations ranging from 1 to 100 of racemic menthol propyleneglycol-carbonate were tested in the presence of bFGF used as maximum proliferation control. Cells were cultured for an additional 48 hours, and relative cell numbers in each well were determined by XTT Cell Proliferation Kit (Roche).
For orientation: Formazan colour is commonly taken as a measure of viable cells.

For a further data set, the system named is Ha-CaT cells. Nature of the data set: cell cytotoxicity assay, XTT. The data set is classed as cell-based. As to conditions: for Cell Viability (%): 48 hours, Ha-CaT. The method, then:
5×10^3 Ha-CaT cells were plated in each well of 96 well plates and racemic menthol propyleneglycol-carbonate was added at various concentrations. The plates were incubated for another 48 hours and the viable cells were measured by XTT Cell Proliferation Kit (Roche). More than 70% of Ha-CaT cells were viable even at high concentration of 100 μM.

Data set [3] deals with aortic rings (angiogenic sprouting / microvessel formation). The experiment in a line: ex vivo rat aortic ring angiogenesis assay. The data set is classed as cell-based, Sprague Dawley rats. As to conditions: for % Inhibition (microvessel density) / Microvessel Density (pixel^2): day 10; for Microvessel Density (pixel^2): 5 aortic rings, ECGS as inducer; for anti-angiogenic effect (in words): rat aortic ring assay, 1, 10, and 100 μM. The text has this:
The effect of racemic menthol propyleneglycol-carbonate on angiogenesis was studied by culturing aortic explants in three-dimensional matrix gels according to the procedure of Kruger and Figg (Kruger E. A. and Figg, W. D. Protein Binding Alters the Activity of Suramin, Carboxyamidotriazole, and UCN-01 in an ex Vivo Rat Aortic Ring Angiogenesis Assay Clinical Cancer Research 7:1867-1872, 2001). Thoracic aortas were excised from 8-week-old mail Sprague Dawley rats and the fibroadipose tissue was removed. The aortas were sectioned into 1-mm-long cross-sections, rinsed with Human Endothelial-SFM (GIBCO), placed on the Matrigel-coated wells, covered with additional 50 μl Matrigel, and allowed to gel for more than 30 min at 37° C., 5% CO2. All the rings were cultured in Human Endothelial-SFM (GIBCO) supplemented with […] of ECGS (Endothelial Cell Growth Supplement, Sigma) as an angiogenesis inducer. Racemic menthol propylene-carbonate diluted with enthanol was added to the culture medium at final concentrations of 1, 10, and 100 μM. Ethanol alone (1%) was added to the culture medium as a vehicle control. All assays were performed by using 5 aortic rings per sample. Aortic rings were photographed on day 10. The area of angiogenic sprouting was calculated using Image-Pro Plus software (Media Cybernetics). Microvessel densities are reported in square pixels.

The mark [4] stands for this setting: 2.5 mg/ear topical (10% in acetone), 4 hours after TPA 2.5 μg/ear.

The record followed here is patent US20090203776A1, “METHODS OF USING MENTHOL PROPYLENEGLYCOL-CARBONATE AND ANALOGS THEREOF FOR PRODUCING ANTI-INFLAMMATORY AND ANTI-ANGIOGENIC EFFECTS” (priority 2004, published 2009).

For `COc1ccc2c(c1)c(CC(=O)O)c(C)n2C(=O)c1ccc(Cl)cc1` [Indomethacin, reference compound], the “Anti-inflammatory Effect (% of control)” value in data set [1] (positive control, 0.5 mg/ear, 4 hours after TPA) is reported as 96 % of control.
Take `CC1CCC(C(C)C)C(OCC(O)CO)C1` (centres unmarked) [menthoxy-propane-1,2-diol]: the “anti-inflammatory effect (in words)” value in data set [1] is “Satisfactory anti-inflammatory effects”. Moreover, the “Anti-inflammatory Effect (% of control)” value in data set [1] (setting [4]) is recorded as 27 % of control.
The like results for `C=C(C)C1CCC(C)CC1OC(=O)OCC(C)O` (centres unmarked) [isopulegol propyleneglycol-carbonate] were, in that order, “Satisfactory anti-inflammatory effects” and 33 % of control.
For `CC1CCC(C(C)C)C(O)C1` (centres unmarked) [(l)-Menthol, reference compound], the “anti-inflammatory effect (in words)” value in data set [1] was “no appreciable anti-inflammatory effect”. The “Anti-inflammatory Effect (% of control)” value in data set [1] (setting [4]) is reported as 0 % of control.
On to `CC(O)COC(=O)OC1CC(C)CCC1C(C)C` (racemic) [racemic menthol propyleneglycol-carbonate], for which the “anti-inflammatory effect (in words)” value in data set [1] is reported as “Satisfactory anti-inflammatory effects”. In data set [1] (setting [4]), the “Anti-inflammatory Effect (% of control)” value is given as 23 % of control. In addition, the “Proliferation (%)” value was found to be 97.6% in data set [2] (1 μM); 93.9% in data set [2] (5 μM); 95.3% in data set [2] (10 μM); 97.6% in data set [2] (50 μM); 80.0% in data set [2] (100 μM). The “Average (relative cell number, XTT)” value is 1.0623 in data set [2] (1 μM); 1.0305 in data set [2] (5 μM); 1.0425 in data set [2] (10 μM); 1.0621 in data set [2] (50 μM); 0.9121 in data set [2] (100 μM). In addition, the “Cell Viability (%)” value in the data set with Ha-CaT cells (0.1 uM) was found to be 100%; in the data set on Ha-CaT cells (1.0 uM), 100%; in the data set with Ha-CaT cells (5.0 uM) it was 96.5%; in the data set on Ha-CaT cells (10.0 uM), 96.3%; in the data set on Ha-CaT cells (50.0 uM), 81.8%. The “cytotoxic effect on normal cells (in words)” value in the data set with Ha-CaT cells (Ha-CaT cells, up to 100 μM) is given as “non-toxic against normal cells”. Moreover, the “% Inhibition (microvessel density)” value is listed as 15% in data set [3] (1 uM), 22% in data set [3] (10 uM) and 33% in data set [3] (100 uM). Further, the results for the “Microvessel Density (pixel^2)” value in data set [3] (1 uM), in data set [3] (10 uM) and in data set [3] (100 uM) were 13.4 ± 4.1 pixel^2, 12.2 ± 2.5 pixel^2 and 10.6 ± 3.8 pixel^2, respectively. Also, the entries for the “anti-angiogenic effect (in words)” value in data set [3] and in data set [3] (listed as racemic menthol propylene-carbonate) were “Satisfactory anti-angiogenic effect” and “inhibited microvessel formation in rat aortic ring assay in a dose dependent manner”, respectively.
For `CC1CCC(C(C)C)C(OC(=O)OCCCCCCCCCO)C1` (centres unmarked) [menthyl-9-hydroxynonyl-carbonate], the “anti-inflammatory effect (in words)” value in data set [1] is recorded as “Satisfactory anti-inflammatory effects”. Also, the “Anti-inflammatory Effect (% of control)” value in data set [1] (setting [4]) is on record as 45 % of control.
